Laboratory results reported in patent US6613903B2, “Modulators of protein tyrosine phosphatases (PTPases)” (Novo Nordisk A/S, priority 2000, dated 2003).

Each molecule was assayed against T1, truncated form of PTP1 B (corresponding to the first 321 amino acids) (Homo sapiens, UniProt P18031) (assay: Inhibition of PTP1B, p-nitrophenyl phosphate as substrate, enzyme kinetics). Conditions: truncated PTP1B expressed in E. coli; substrate p-nitrophenyl phosphate 0.16 to 10 mM; sodium acetate pH 5.5; 25° C. for 60 minutes; absorbance at 405 nm.
T1 construct: truncated form of PTP1 B (corresponding to the first 321 amino acids); made in house; host or cells: E. coli
T1 sequence (P18031 1-321): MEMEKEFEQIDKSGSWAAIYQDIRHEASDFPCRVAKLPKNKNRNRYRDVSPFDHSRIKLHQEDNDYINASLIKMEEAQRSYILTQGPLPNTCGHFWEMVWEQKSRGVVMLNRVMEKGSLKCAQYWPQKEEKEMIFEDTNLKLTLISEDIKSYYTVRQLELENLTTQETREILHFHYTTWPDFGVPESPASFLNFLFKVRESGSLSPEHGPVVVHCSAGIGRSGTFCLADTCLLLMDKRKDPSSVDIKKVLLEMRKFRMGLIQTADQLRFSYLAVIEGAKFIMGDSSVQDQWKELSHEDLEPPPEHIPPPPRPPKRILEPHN
Assay type: biochemical
Procedure: The compounds are evaluated for biological activity with a truncated form of PTP1 B (corresponding to the first 321 amino acids), which was expressed in E. coli and purified to apparent homogeneity using published procedures well-known to those skilled in the art. The enzyme reactions are carried out using standard conditions essentially as described by Burke et al. (Biochemistry 35; 15989-15996 (1996)). The assay conditions are as follows. Appropriate concentrations of the compounds of the invention are added to the reaction mixtures containing different concentrations of the substrate, p-nitrophenyl phosphate (range: 0.16 to 10 mM—final assay concentration). The buffer used was 100 mM sodium acetate pH 5.5, 50 mM sodium chloride, 0.1% (w/v) bovine serum albumin and 5 mM dithiothreitol (total volume […]). The reaction was started by addition of the enzyme and carried out in microtiter plates at 25° C. for 60 minutes. The reactions are stopped by addition of NaOH. The enzyme activity was determined by measurement of the absorbance at 405 nm with appropriate corrections for absorbance at 405 nm of the compounds and p-nitrophenyl phosphate. The data are analyzed using nonlinear regression fit to classical Michaelis Menten enzyme kinetic models. Inhibition is expressed as Ki values in μM.

SMILES | Ki [nM]
O=C(O)C(=O)Nc1sc2c(c1C(=O)O)CCNC2CNC(=O)c1ccccc1 (centres unmarked) [Example 1, 7-(Benzoylamino-methyl)-2-(oxalyl-amino)-4,5,6,7-tetrahydro-thieno[2,3-c]pyridine-3-carboxylic acid] | 490
O=C(O)C(=O)Nc1sc2c(c1C(=O)O)CCNC2CNC(=O)c1ccc(NC(=O)c2ccccc2)cc1 (centres unmarked) [Example 6, 7-((4-Benzoylamino-benzoylamino)methyl)-2-(oxalyl-amino)-4,5,6,7-tetrahydro-thieno[2,3-c]pyridine-3-carboxylic acid] | 330
O=C(CCc1ccc(-c2ccccc2)cc1)NCC1NCCc2c1sc(NC(=O)C(=O)O)c2C(=O)O (centres unmarked) [Example 9, 7-((3-Biphenyl-4-yl-propionylamino)methyl)-2-(oxalyl-amino)-4,5,6,7-tetrahydro-thieno[2,3-c]-pyridine-3-carboxylic acid] | 62
O=C(O)C(=O)Nc1sc2c(c1C(=O)O)CCNC2CNC(=O)c1ccc(Cc2ccccc2)cc1 (centres unmarked) [Example 11, 7-((4-Benzyl-benzoylamino)methyl)-2-(oxalyl-amino)-4,5,6,7-tetrahydro-thieno[2,3-c]pyridine-3-carboxylic acid] | 140
O=C(O)C(=O)Nc1sc2c(c1C(=O)O)CCNC2CNC(=O)c1cccc2ccccc12 (centres unmarked) [Example 12, 7-(((Naphthalene-1-carbonyl)amino)methyl)-2-(oxalyl-amino)-4,5,6,7-tetrahydro-thieno[2,3-c]pyridine-3-carboxylic acid] | 120
O=C(CCc1ccc2ccccc2c1)NCC1NCCc2c1sc(NC(=O)C(=O)O)c2C(=O)O (centres unmarked) [Example 13, 7-((3-Naphthalen-2-yl-propionylamino)methyl)-2-(oxalyl-amino)-4,5,6,7-tetrahydro-thieno[2,3-c]pyridine-3-carboxylic acid] | 70
O=C(O)C(=O)Nc1sc2c(c1C(=O)O)CCNC2CNC(=O)c1c(O)ccc2ccccc12 (centres unmarked) [Example 14, 7-(((2-Hydroxy-naphthalene-1-carbonyl)amino)methyl)-2-(oxalyl-amino)-4,5,6,7-tetrahydro-thieno[2,3-c]pyridine-3-carboxylic acid] | 70
CCOc1cccc2cc(C(=O)NC[C@@H]3NCCc4c3sc(NC(=O)C(=O)O)c4C(=O)O)oc12 [Example 20, 7-(S)-(((7-Ethoxy-benzofuran-2-carbonyl)amino)methyl)-2-(oxalyl-amino)-4,5,6,7-tetrahydro-thieno[2,3-c]pyridine-3-carboxylic acid] | 110
CC(=O)Nc1ccc(S(=O)(=O)NC[C@@H]2NCCc3c2sc(NC(=O)C(=O)O)c3C(=O)O)cc1 [Example 22, 7-(S)-((4-Acetylamino-benzenesulfonylamino)methyl)-2-(oxalyl-amino)-4,5,6,7-tetrahydro-thieno[2,3-c]pyridine-3-carboxylic acid] | 91
O=C(O)C(=O)Nc1sc2c(c1C(=O)O)CCN[C@H]2CNC(=O)c1ccc2nc[nH]c2c1 [Example 24, 7-(S)-(((3H-Benzoimidazole-5-carbonyl)amino)methyl)-2-(oxalyl-amino)-4,5,6,7-tetrahydro-thieno[2,3-c]pyridine-3-carboxylic acid] | 640
O=C(O)C(=O)Nc1sc2c(c1C(=O)O)CCN[C@H]2CNC(=O)c1cc2cc(O)ccc2[nH]1 [Example 25, 7-(S)-(((5-Hydroxy-1H-indole-2-carbonyl)amino)methyl)-2-(oxalyl-amino)-4,5,6,7-tetrahydro-thieno[2,3-c]pyridine-3-carboxylic acid] | 3200
O=C(O)C(=O)Nc1sc2c(c1C(=O)O)CCN[C@@H]2CNC(=O)c1cc2cc(O)ccc2[nH]1 [Example 26, 7-(R)-(((5-Hydroxy-1H-indole-2-carbonyl)amino)methyl)-2-(oxalyl-amino)-4,5,6,7-tetrahydro-thieno[2,3-c]pyridine-3-carboxylic acid] | 2600
O=C(O)C(=O)Nc1sc2c(c1C(=O)O)CCN[C@@H]2CNC(=O)c1cn(Cc2ccccc2)c2ccccc12 [Example 27, 7-(R)-(((1-Benzyl-1H-indole-3-carbonyl)amino)methyl)-2-(oxalyl-amino)-4,5,6,7-tetrahydro-thieno[2,3-c]pyridine-3-carboxylic acid] | 2100
O=C(O)C(=O)Nc1sc2c(c1C(=O)O)CCN[C@H]2CNCc1ccc(Oc2ccccc2)cc1 [Example 28, 2-(Oxalyl-amino)-7-(S)-((4-phenoxy-benzylamino)methyl)-4,5,6,7-tetrahydro-thieno[2,3-c]pyridine-3-carboxylic acid] | 58
O=C(NC[C@@H]1NCCc2c1sc(NC(=O)C(=O)O)c2C(=O)O)Nc1ccc(Oc2ccccc2)cc1 [Example 29, 2-(Oxalyl-amino)-7-(S)-(3-(4-phenoxy-phenyl)ureidomethyl)-4,5,6,7-tetrahydro-thieno[2,3-c]pyridine-3-carboxylic acid] | 31
O=C(O)C(=O)Nc1sc2c(c1C(=O)O)CCNC2CNC(=O)c1cn(Cc2ccccc2)c2ccccc12 (centres unmarked) [Example 30, 7-(((1-Benzyl-1H-indole-3-carbonyl)amino)methyl)-2-(oxalyl-amino)-4,5,6,7-tetrahydro-thieno[2,3-c]pyridine-3-carboxylic acid] | 70
CC(=O)NCC1NCCc2c1sc(NC(=O)C(=O)O)c2C(=O)O (centres unmarked) [Example 31, 7-(Acetylamino-methyl)-2-(oxalyl-amino)-4,5,6,7-tetrahydro-thieno[2,3-c]pyridine-3-carboxylic acid] | 1100
CC(C)(N)CCCC(=O)NCC1NCCc2c1sc(NC(=O)C(=O)O)c2C(=O)O (centres unmarked) [Example 32, 7-((5-Amino-5-methyl-hexanoylamino)methyl)-2-(oxalyl-amino)-4,5,6,7-tetrahydro-thieno[2,3-c]pyridine-3-carboxylic acid] | 78
O=C(O)C(=O)Nc1sc2c(c1C(=O)O)CCN[C@H]2CNC(=O)c1cc2cc(F)ccc2[nH]1 [Example 33, 7-(S)-(((5-Fluoro-1H-indole-2-carbonyl)amino)methyl)-2-(oxalyl-amino)-4,5,6,7-tetrahydro-thieno[2,3-c]pyridine-3-carboxylic acid] | 18
CC(=O)OCOC(=O)Oc1ccc2[nH]c(C(=O)NC[C@H]3c4sc(NC(=O)C(=O)O)c(C(=O)O)c4CCN3C(=O)OCOC(C)=O)cc2c1 [Example 35, 7-(S)-(((5-Acetoxymethoxycarbonyloxy-1H-indole-2-carbonyl)amino)methyl)-2-(oxalyl-amino)-4,7-dihydro-5H-thieno[2,3-c]pyridine-3,6-dicarboxylic acid 6-acetoxymethyl ester] | 32
O=C(O)C(=O)Nc1sc2c(c1C(=O)O)CCN[C@H]2CNC(=O)c1ccc(-c2cccc(-c3ccccc3)c2)cc1 [Example 36] | 42
O=C(O)C(=O)Nc1sc2c(c1C(=O)O)CCN[C@H]2CNC(=O)c1cc2ccccc2[nH]1 [Example 37, 7-(S)-(((1H-Indole-2-carbonyl)amino)methyl)-2-(oxalyl-amino)-4,5,6,7-tetrahydro-thieno[2,3-c]pyridine-3-carboxylic acid] | 31
CCOC(=O)C(=O)Nc1sc2c(c1C(=O)O)CCNC2CNC(=O)c1cc2cc(O)ccc2[nH]1 (centres unmarked) [Example 38, 2-(Ethoxyoxalyl-amino)-7-(((5-hydroxy-1H-indole-2-carbonyl)amino)methyl)-4,5,6,7-tetrahydro-thieno[2,3-c]pyridine-3-carboxylic acid] | 63
CCOC(=O)c1c(NC(=O)C(=O)OCC(C)(C)C)sc2c1CCNC2CNC(=O)c1cc2cc(O)ccc2[nH]1 (centres unmarked) [Example 40, 2-((2,2-Dimethyl-propoxyoxalyl)amino)-7-(((5-hydroxy-1H-indole-2-carbonyl)-amino)methyl)-4,5,6,7-tetrahydro-thieno[2,3-c]pyridine-3-carboxylic acid ethyl ester] | 1300
CCOC(=O)c1c(NC(=O)C(=O)O)sc2c1CCNC2CNC(=O)c1cc2cc(O)ccc2[nH]1 (centres unmarked) [Example 41, 7-(((5-Hydroxy-1H-indole-2-carbonyl)amino)methyl)-2-(oxalyl-amino)-4,7-dihydro-5H-thieno[2,3-c]pyridine-3-carboxylic acid ethyl ester] | 900
CCOC(=O)N1CCc2c(sc(NC(=O)C(=O)O)c2C(=O)O)C1CNC(=O)c1cc2cc(O)ccc2[nH]1 (centres unmarked) [Example 42, 7-(((5-Hydroxy-1H-indole-2-carbonyl)amino)methyl)-2-(oxalyl-amino)-4,7-dihydro-5H-thieno[2,3-c]pyridine-3,6-dicarboxylic acid 6-ethyl ester] | 120
